Assay results taken from ChEMBL document CHEMBL3045062, “Potent in vitro and in vivo antitubercular activity of certain newly synthesized indophenazine 1,3,5-trisubstituted pyrazoline derivatives bearing benzofuran” (Med Chem Res, 2011).
≈ marks a conversion by molar mass, not a printed value.

System: Mycobacterium tuberculosis
Test: Antitubercular activity against Isoniazid,rifampicin,gatifloxacin-resistant Mycobacterium tuberculosis after 60 days
Type: functional

Q: Which MIC50 does the source give for CC(=O)c1ccccc1C1CC(c2cc3cc(O)ccc3o2)=NN1C(=O)Cn1c2ccccc2c2nc3ccccc3nc21 (stereo not given) here?
A: 9.56 µg/mL (≈ 16.5 µM)

Q: What about the MIC90 of the same compound?
A: 7.45 µg/mL (≈ 12.9 µM)

Q: O=C(Cn1c2ccccc2c2nc3ccccc3nc21)N1N=C(c2cc3cc(O)ccc3o2)CC1c1ccc(Cl)cc1 (stereo not given) was tested. Which MIC50 did it give?
A: 5.23 µg/mL (≈ 9.14 µM)

Q: And the MIC90?
A: 8.66 µg/mL (≈ 15.1 µM)

Q: CN(C)c1ccc(C2CC(c3cc4cc(O)ccc4o3)=NN2C(=O)Cn2c3ccccc3c3nc4ccccc4nc32)cc1 (stereo not given) was tested. Which MIC50 did it give?
A: 5 µg/mL (≈ 8.61 µM)

Q: What about the MIC90 of the same compound?
A: 8.98 µg/mL (≈ 15.5 µM)

Q: Which MIC50 does the source give for O=C(Cn1c2ccccc2c2nc3ccccc3nc21)N1N=C(c2cc3cc(O)ccc3o2)CC1/C=C/c1ccccc1 (stereo not given) here?
A: 5.6 µg/mL (≈ 9.94 µM)

Q: What about the MIC90 of the same compound?
A: 11.3 µg/mL (≈ 20.1 µM)

Q: With O=C(Cn1c2ccccc2c2nc3ccccc3nc21)N1N=C(c2cc3cc(O)ccc3o2)CC1c1ccccc1[N+](=O)[O-] (stereo not given) as the compound, how does the MIC50 read?
A: 3.24 µg/mL (≈ 5.56 µM)

Q: What about the MIC90 of the same compound?
A: 7.2 µg/mL (≈ 12.4 µM)

Q: For COc1ccc(C2CC(c3cc4cc(O)ccc4o3)=NN2C(=O)Cn2c3ccccc3c3nc4ccccc4nc32)cc1 (stereo not given), which MIC50 is on record?
A: 11.5 µg/mL (≈ 20.3 µM)

Q: And the MIC90?
A: 15.4 µg/mL (≈ 27.1 µM)

Q: How did the MIC50 turn out when O=C(Cn1c2ccccc2c2nc3ccccc3nc21)N1N=C(c2cc3cc(O)ccc3o2)CC1c1ccccc1O (stereo not given) was run?
A: 10.3 µg/mL (≈ 18.7 µM)

Q: And the MIC90?
A: 12.6 µg/mL (≈ 22.7 µM)

Q: Which MIC50 does the source give for CO[C@H]1/C=C/O[C@@]2(C)Oc3c(C)c(O)c4c(O)c(c(/C=N/N5CCN(C)CC5)c(O)c4c3C2=O)NC(=O)/C(C)=C\C=C\[C@H](C)[C@H](O)[C@@H](C)[C@@H](O)[C@@H](C)[C@H](OC(C)=O)[C@@H]1C [RIFAMPIN] here?
A: 4.21 µg/mL (≈ 5.12 µM)

Q: What about the MIC90 of the same compound?
A: 7.37 µg/mL (≈ 8.96 µM)

Q: With O=C(Cn1c2ccccc2c2nc3ccccc3nc21)N1N=C(c2cc3cc(O)ccc3o2)CC1c1ccco1 (stereo not given) as the compound, how does the MIC50 read?
A: 6.4 µg/mL (≈ 12.1 µM)

Q: What about the MIC90 of the same compound?
A: 9.78 µg/mL (≈ 18.5 µM)

Q: For COc1ccccc1C1CC(c2cc3cc(O)ccc3o2)=NN1C(=O)Cn1c2ccccc2c2nc3ccccc3nc21 (stereo not given), which MIC50 is on record?
A: 10.7 µg/mL (≈ 18.8 µM)

Q: What about the MIC90 of the same compound?
A: 13.6 µg/mL (≈ 24 µM)

Q: How did the MIC50 turn out when O=C(Cn1c2ccccc2c2nc3ccccc3nc21)N1N=C(c2cc3cc(O)ccc3o2)CC1c1cccc([N+](=O)[O-])c1 (stereo not given) was run?
A: 1.2 µg/mL (≈ 2.06 µM)

Q: And the MIC90?
A: 2 µg/mL (≈ 3.43 µM)

Q: Which MIC50 does the source give for O=C(Cn1c2ccccc2c2nc3ccccc3nc21)N1N=C(c2cc3cc(O)ccc3o2)CC1c1ccc(O)cc1 (stereo not given) here?
A: 9.86 µg/mL (≈ 17.8 µM)

Q: What about the MIC90 of the same compound?
A: 11.2 µg/mL (≈ 20.3 µM)

Q: Which results are given for COc1ccc(C2CC(c3cc4cc(O)ccc4o3)=NN2C(=O)Cn2c3ccccc3c3nc4ccccc4nc32)c(O)c1 (stereo not given)?
A: MIC50: 7.8 µg/mL (≈ 13.4 µM); MIC90: 13.1 µg/mL (≈ 22.4 µM)

Q: COc1c(N2CCNC(C)C2)c(F)cc2c(=O)c(C(=O)O)cn(C3CC3)c12 (stereo not given) [GATIFLOXACIN] was tested. Which MIC50 did it give?
A: 14.7 µg/mL (≈ 39.2 µM)

Q: What about the MIC90 of the same compound?
A: 28.5 µg/mL (≈ 75.8 µM)

Q: O=C(Cn1c2ccccc2c2nc3ccccc3nc21)N1N=C(c2cc3cc(O)ccc3o2)CC1c1ccccc1Cl (stereo not given) was tested. Which MIC50 did it give?
A: 4.68 µg/mL (≈ 8.18 µM)

Q: What about the MIC90 of the same compound?
A: 8.61 µg/mL (≈ 15.1 µM)
